Assay results: patent US8084449B2, “Dual pharmacophores—PDE4-muscarinic antagonistics” (Glaxo Group Limited, priority 2008, dated 2011)

Experiments:
[1] = system: human M1, M2 and M3 ACh receptors stably expressed in CHO cells; test: Calcium mobilization (FLIPR) IC50 determination for antagonists: inhibition of ACh induced muscarinic receptor activation; assay type: cell-based; details: EC80 concentration of ACh, active if IC50 of between 33 uM and 10 nM or less, receptor subtype not specified for the statement
Description: Studies to determine the effectiveness of antagonists to cause blockade of functional intracellular calcium fluxes following agonist (ACh) treatment of cloned human receptors. This system is used for characterizations of antagonist-receptor interactions using four distinct variations of the FLIPR methodology: (a) potency: IC50 determination, (b) potency: pA2 determination, (c) reversibility of antagonist-receptor interaction, or (d) confirmation of no functional agonist activity.
Cell Source The human M1-M3 receptors are cloned and stably expressed in Chinese Hamster Ovary (CHO) cells. The M2 receptors are co-expressed with the chimeric G protein, Gqi5.
Method of Culture: CHO-M1, CHO-Gqi5-M2 and CHO-M3 cells are cultured to confluence at 37° C. in a humidified incubator with 5% CO2/95% air. […] The emitted fluorescence from all 96 wells is measured simultaneously using a cooled CCD camera. […]
Cell plating: A microtiter plate based calcium mobilization FLIPR (Fluorometric Imaging Plate Reader, Molecular Devices, Sunnyvale Calif., [Schroeder K S, Neagle, B D. FLIPR: a new instrument for accurate, high throughput optical screening. J. Biomol. Screen. 1996; 1:75.]) assay is used for the functional characterization of compounds against M1, M2 (w/Gqi5) and M3 ACh receptors stably expressed in CHO cells. […]

| melting point [°C] | Compound | IC50 (compound pretreatment concentration which inhibits 50% of the ACh induced response), activity rating [1] |
| --- | --- | --- |
| 146 to 147 | NC(=O)c1ccc(Cl)c(Br)c1 | – |
| – | CCc1nc2c(cnn2CC)c(NC2CCOCC2)c1CNC(=O)c1cccc(C(=O)NCc2ccc(OC)c(-c3cccc(CN4CCN[C@@H](C)C4)c3)c2)n1 [Example 157, N-{[1,6-Diethyl-4-(tetrahydro-2H-pyran-4-ylamino)-1H-pyrazolo[3,4-b]pyridin-5-yl]methyl}-N′-[(6-(methyloxy)-3′-{[(3S)-3-methyl-1-piperazinyl]methyl}-3-biphenylyl)methyl]-2,6-pyridinedicarboxamide] | most active |
